The conditions of data set [1]: normalized: most hydrophobic residue 100, glycine 0, cited from earlier work; for hydrophobicity index At pH 2: from Sereda et al. 1994; for hydrophobicity index At pH 7: from Monera et al. 1995.
Data set [2] relates to 16HBE cells. Description: In vitro transfection, Metridia luciferase assay in 16HBE cells. In kind it is cell-based, human.
The test system of data set [3] is BEAS-2B cells. The data set can be described thus: In vitro transfection, Metridia luciferase assay in BEAS-2B cells. The data set is classed as cell-based, human. The following applies: for pDNA transfection efficiency of P704 ternary complex (in words): MetLuc pDNA, P704 50 (w/w), FIG. 14a. As to the method:
(§1) Preparation of IVT-mRNA/pDNA containing binary and ternary complexes: Stock solutions of P704 (5 mg/ml) and synthetic compound (1 mg/ml) were prepared in nuclease-free water (NF water) and stored at 4° C. P704 based binary complexes (P704/IVT-mRNA or P704/pDNA) were prepared by mixing equal volumes of diluted P704 stock solution with IVT-mRNA or pDNA solution at the desired concentration in 2× Tyrode's solution. Ternary complexes were generated via two-steps incubation. Briefly, P704 solutions at certain concentration (defined as weight/weight (w/w) ratio between P704 and nucleic acids) in NF-water were mixed with equal volume of synthetic compound solution at specific concentration (defined as N/P ratio, namely the […] between nitrogen residues in synthetic compound and nucleic acids phosphate groups). After 20 min incubation at room temperature (RT), same volumes of nucleic acid (IVT-mRNA or pDNA) solution in NF-water were added to the above P704/synthetic compound solution and mixed gently by pipetting up and down several times. Subsequently, complexes were incubated for another 20 min at RT prior to further use. IVT-mRNA or pDNA solutions in NF-water were complexed with brPEI (25 kDa) at an optimum N/P ratio, the resulting complexes were served as a control polyplex. As for control lipoplex, Lipofectamine® 2000 complexes were prepared according to the manufacturer's instructions using optimum concentration. In order to prepare DOTAP/DOPE liposomes, a lipid film was formed by removing the chloroform solvent in DOTAP/DOPE mixture solution under nitrogen atmosphere. The lipid film is hydrated with NF-water to make the final concentration 10 mM DOTAP/DOPE. The DOTAP/DOPE liposome formulation was formed by mixing 250 μl of pDNA encoding for firefly luciferase and cystic fibrosis transmembrane conductance regulator (fLUC-CFTR pDNA) (150 μg) containing solution and 250 μl diluted DOTAP/DOPE solution (190 μl of 10 mM DOTAP/DOPE liposome and 60 μl NF-water). The mix solution was incubated at RT for 20 min prior to further use.
(§2) In vitro transfection: For the luciferase assay, cells were seeded at a density of 1.8×10^4/well (BEAS-2B) or 3.5×10^4/well (16HBE) in 96-well plates 24 h before transfection to reach 60-80% confluence. Following removal of growth medium, cells were rinsed with DPBS (Gibco, Germany). 170 μl of fresh serum-free OptiMEM (Gibco, Germany) were added per well, and subsequently 30 μl of IVT-mRNA or pDNA containing complexes prepared, as described above, corresponding to 400 ng IVT-mRNA or pDNA per well, were added in replicates of five. After 4 h of incubation at 37° C. in a humidified 5% CO2-containing atmosphere, the transfection medium was replaced with culture medium supplemented with 10% FBS and 1% (v/v) penicillin/streptomycin. Luciferase activity in 50 μl supernatants from transfected cells was assayed with Metridia luciferase substrate (coelenterazine, Invivogen, France) after 24 h using a FLUOstar microplate reader (BMG Labtech, Germany) and its activity is expressed in relative light units (RLU). In all cases each sample was measured on at least two other occasions to ensure the reproducibility of the data.
The same transfection procedure as described above was applied. Luciferase activity was expressed in RLU. The data are given as the mean±standard deviation (SD) of the mean (n>5) in FIGS. 12a to 12k.
(§3) The concentration of P704 in ternary complexes for treatment of BEAS-2B cells was 50 (w/w) and the concentration of P704 in ternary complexes for treatment of 16HBE cells was 63 (w/w). The N/P ratios of the compounds in ternary complexes were as follows:
BEAS-2B cells: Compound 0 (DL) at 30, compound 1 at 20, compounds 3 and 11 at 15, compounds 4 and 6 at 10, compounds 2 and 9 at 5, compounds 5, 7, 8 and 10 at 2.5.
The same transfection procedure as described above was applied. Luciferase activity was expressed in RLU. […]

Data set [4] relates to 16HBE cells. The data set can be described thus: In vitro transfection, Metridia luciferase assay in 16HBE cells. The data set is classed as cell-based, human. The note with it: for pDNA transfection efficiency of P704 ternary complex (in words): MetLuc pDNA, FIG. 14b. The procedure: as §1
as §2, with “data. […]” for “data.”
as §3
16HBE cells: Compound 0 (DL) at 20, compounds 1 and 11 at 15, compounds 2 and 3 at 10, compounds 4, 6, 8, and 9 at 5, compounds 5, 7, and 10 at 2.5.
The same transfection procedure as described above was applied.
The concentration of P704 in ternary complexes was 63 (w/w). The N/P ratio of the compounds in certain ternary complexes was as follows:
16HBE cells: Compound 1, 8, and 11 at 20; compound 0 (DL) and 3 at 10; compound 2 at 7.5; compounds 4, 6, 9, and 10 at 5, compounds 5 and 7 at 2.5. […]

Data set [5] concerns BEAS-2B cells. The data set can be described thus: In vitro transfection, Metridia luciferase assay in BEAS-2B cells. The following applies: for pDNA expression compared with compound 0 containing ternary complexes: day 3. In kind it is cell-based, human.
The test system of a further data set is airway epithelium cells. Description: In vitro transfection study on cultured airway epithelium cells (luciferase, RLU/mg cellular protein). The data set is classed as cell-based. The following applies: ternary complexes formed by P704, a nucleic acid and the compound. As to the method:
as §2, with “Luciferase activity in 50 μl supernatants from transfected cells was” left out, “[…]).” for “Germany) and its activity is expressed in relative light units (RLU).”

[6] abbreviates: MetLuc mRNA, optimum composition.
Where [7] appears, read: MetLuc pDNA, P704 ternary complex, day 3, optimum composition.

Where no end group is shown, it is not given here. The star is where a group is joined. ξ: configuration not given here. Lipoyl(6ξ) = O=C(CCCCC1CCSS1)*

Turning to `CC[C@H](C)[C@H](N)C(=O)O` [Isoleucine (ile), Isoleucine], in data set [1], the “hydrophobicity index At pH 2” value is on record as 100 and the “hydrophobicity index At pH 7” value was 99.

`N[C@@H](Cc1ccc(O)cc1)C(=O)O` [Tyrosine (tyr), Tyrosine]: in data set [1], the “hydrophobicity index At pH 2” value was 49 and the “hydrophobicity index At pH 7” value was 63.

Turning to `C[C@H](N)C(=O)O` [Alanine (ala), Alanine], in data set [1], the “hydrophobicity index At pH 2” value is on record as 47 and the “hydrophobicity index At pH 7” value is recorded as 41.

Take “DL-lipoic acid-WLHHHKKLLHHHKKL-GACSERSMNFCG ({Lipoyl(6ξ)}-WLHHHKKLLHHHKKLGACSERSMNFCG; cysteine pairing not given here) [compound 8]”: the “luciferase expression of ternary complexes with P304 and MetLuc mRNA” value in the data set on 16HBE cells [2] (P304 2000 (w/w), high N/P ratio, even higher than compound 9, FIG. 25a) is “rather high luciferase expression”.

As to “DL-lipoic acid-WKKKKRRRRRKKKK-GACSERSMNFCG ({Lipoyl(6ξ)}-WKKKKRRRRRKKKKGACSERSMNFCG; cysteine pairing not given here) [compound 4]”, in the data set on BEAS-2B cells [3] (optimum N/P), the “pDNA transfection efficiency of P704 ternary complex (in words)” value (shortened to “pDNA transfection efficiency”) is “similar”.

Consider `O=C(O)CCCCC1CCSS1` (racemic) [compound 2, DL-lipoic acid, reference compound], for which the “IVT-mRNA transfection efficiency of P704 ternary complex (in words)” value in the data set on 16HBE cells [4] (MetLuc mRNA, P704 63 (w/w), optimum N/P, FIG. 17b) is on record as “rather low transfection efficiency”; in the data set on BEAS-2B cells [3] (MetLuc mRNA, P704 63 (w/w), optimum N/P, FIG. 17a), “rather low transfection efficiency”. Also, the “pDNA transfection efficiency” value in the data set with 16HBE cells [4] (P704 63 (w/w), optimum N/P) is “rather low transfection efficiency”; with BEAS-2B cells [3] (optimum N/P), “rather low transfection efficiency”.

In the case of `N[C@@H](CS)C(=O)O` [Cysteine (cys), Cysteine], in data set [1], the “hydrophobicity index At pH 2” value is given as 52 and the “hydrophobicity index At pH 7” value was 49.

In the case of `NCCCC[C@H](N)C(=O)O` [Lysine (lys), Lysine], in data set [1], the “hydrophobicity index At pH 2” value is −37 and the “hydrophobicity index At pH 7” value is listed as −23.

For the compound “NH2-VKRKKKPKKRRRRKK-CONH2 (H-VKRKKKPKKRRRRKK-NH2) [compound 1]”, the “IVT-mRNA transfection efficiency relative to P704/compound 0/IVT-mRNA complex” value with 16HBE cells [4] (setting [6]) and in the data set on BEAS-2B cells [3] (setting [6]) was “one third” in each case. Moreover, the “pDNA transfection, share of maximum signal intensity of compound 0 counterpart” value with 16HBE cells [2] (setting [7]) is on record as “half”; in the data set on BEAS-2B cells [5] (setting [7]) it was 7%.

For the compound “DL-lipoic acid-WKKKKRRRRRKKKK-GACYGLPHKFCG ({Lipoyl(6ξ)}-WKKKKRRRRRKKKKGACYGLPHKFCG; cysteine pairing not given here) [compound 5]”, the “pDNA expression compared with compound 0 containing ternary complexes” value in the data set on BEAS-2B cells [5] is listed as “slightly better”. In the data set on BEAS-2B cells [3] (optimum N/P), the “pDNA transfection efficiency” value is given as “similar”.

On to `CSCC[C@H](N)C(=O)O` [Methionine (met), Methionine], for which, in data set [1], the “hydrophobicity index At pH 2” value is recorded as 74 and the “hydrophobicity index At pH 7” value is on record as 74.

Consider `N[C@@H](Cc1c[nH]c2ccccc12)C(=O)O` [Tryptophan (trp), Tryptophan], for which, in data set [1], the “hydrophobicity index At pH 2” value was 84 and the “hydrophobicity index At pH 7” value is given as 97.

As to `N[C@@H](Cc1ccccc1)C(=O)O` [Phenylalanine (phe), Phenylalanine], in data set [1], the “hydrophobicity index At pH 2” value was 92 and the “hydrophobicity index At pH 7” value is 100.

Consider `CC(C)[C@H](N)C(=O)O` [Valine (val), Valine], for which, in data set [1], the “hydrophobicity index At pH 2” value is 79 and the “hydrophobicity index At pH 7” value is reported as 76.

As for “NH2-VKRKKKPKKRRRRKKWK(R-lipoic acid)-CONH2 (H-VKRKKKPKKRRRRKKWK(R‑lipoic acid)-NH2) [compound 0 (R)]”, in the data set with airway epithelium cells, the “transfection efficiencies of ternary complexes with compound 0 (DL) versus compound 0 (R)” value is “similar”.

On to “DL-lipoic acid-WKKRRRRRRRRRKK-GACSERSMNFCG ({Lipoyl(6ξ)}-WKKRRRRRRRRRKKGACSERSMNFCG; cysteine pairing not given here) [compound 6]”, for which the “pDNA transfection efficiency” value with 16HBE cells [4] (P704 63 (w/w), optimum N/P) was “overwhelming signals”.

Consider “DL-lipoic acid-WKKRRRRRRRRKK-GACYGLPHKFCG ({Lipoyl(6ξ)}-WKKRRRRRRRRKKGACYGLPHKFCG; cysteine pairing not given here) [compound 7]”, for which, in the data set on BEAS-2B cells [5], the “pDNA expression compared with compound 0 containing ternary complexes” value is reported as “slightly better”. Besides, the “pDNA transfection efficiency” value with BEAS-2B cells [3] (optimum N/P) was “similar”.

As for `NC(=O)C[C@H](N)C(=O)O` [Asparagine (asn), Asparagine], in data set [1], the “hydrophobicity index At pH 2” value is reported as −41 and the “hydrophobicity index At pH 7” value is listed as −28.

For the compound `N[C@@H](Cc1c[nH]cn1)C(=O)O` [Histidine (his), Histidine], in data set [1], the “hydrophobicity index At pH 2” value was −42 and the “hydrophobicity index At pH 7” value is listed as 8.

(Values after patent US11077205B2, “Synthetic compound for improving efficiency of transfection” (Klinikum der Universität München, priority 2016, dated 2021).)
